Measurements: US8178570B2, “Tie-2 modulators and methods of use” (Exelixis, Inc., priority 2003, dated 2012)

Biological target: Tie-2 (Homo sapiens, UniProt Q02763)
Test: Tie-2 tyrosine kinase activity: kinase-dependent ATP consumption (pEY substrate, luciferase/luciferin chemiluminescence) or 33P-ATP incorporation into substrate
Type: biochemical
Settings: Tie-2 (human enzyme) inhibition, Table 2, class symbols A-D
Summary of the method: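 Tie-2 kinase activity is read either as ATP consumption with pEY substrate by luciferase/luciferin chemiluminescence, or as 33P incorporation from 33P-ATP into plate-adsorbed substrate by scintillation counting. IC50 values are binned as A <50 nM, B >50–1000 nM, C >1000–<10,000 nM, and D ≥10,000 nM.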

Tie-2, sequence (Q02763 23-1124): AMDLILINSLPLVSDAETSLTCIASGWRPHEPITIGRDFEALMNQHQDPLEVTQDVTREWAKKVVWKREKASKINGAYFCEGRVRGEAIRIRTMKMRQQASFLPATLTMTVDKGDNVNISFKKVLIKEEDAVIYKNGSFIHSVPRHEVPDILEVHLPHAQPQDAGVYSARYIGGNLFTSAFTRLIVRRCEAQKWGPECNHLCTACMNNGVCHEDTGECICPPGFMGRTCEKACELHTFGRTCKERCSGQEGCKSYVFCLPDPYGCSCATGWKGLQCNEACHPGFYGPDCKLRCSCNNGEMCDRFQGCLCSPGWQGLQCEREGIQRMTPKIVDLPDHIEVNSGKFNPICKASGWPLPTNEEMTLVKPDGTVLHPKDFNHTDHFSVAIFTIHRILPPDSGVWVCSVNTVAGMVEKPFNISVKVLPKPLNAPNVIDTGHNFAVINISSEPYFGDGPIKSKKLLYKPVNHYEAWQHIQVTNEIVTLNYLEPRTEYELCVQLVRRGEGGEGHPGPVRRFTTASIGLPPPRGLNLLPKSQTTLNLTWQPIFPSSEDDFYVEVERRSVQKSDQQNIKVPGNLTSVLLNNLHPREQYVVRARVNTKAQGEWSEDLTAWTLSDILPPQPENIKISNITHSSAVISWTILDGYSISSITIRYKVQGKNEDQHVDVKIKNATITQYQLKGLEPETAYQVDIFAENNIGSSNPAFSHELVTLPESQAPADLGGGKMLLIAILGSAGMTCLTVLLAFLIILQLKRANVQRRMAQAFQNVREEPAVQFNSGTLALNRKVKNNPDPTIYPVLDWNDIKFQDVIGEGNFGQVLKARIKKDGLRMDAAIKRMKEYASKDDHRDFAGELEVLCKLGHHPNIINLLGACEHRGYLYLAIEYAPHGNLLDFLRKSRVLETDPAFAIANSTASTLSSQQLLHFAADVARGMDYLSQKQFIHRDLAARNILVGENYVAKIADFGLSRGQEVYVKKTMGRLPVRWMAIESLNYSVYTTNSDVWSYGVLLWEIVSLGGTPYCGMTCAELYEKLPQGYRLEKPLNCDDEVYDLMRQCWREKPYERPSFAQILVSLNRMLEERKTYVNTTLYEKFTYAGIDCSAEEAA

| IC50 [µM] | Structure (SMILES) |
| --- | --- |
| 1 to 10 | COc1ccc(-c2nc(-c3ccncc3)nn2CCN(C(=O)NCc2ccccc2)C2CCCC2)cc1Cl [Entry 92, N-(2-{5-[3-chloro-4-(methyloxy)phenyl]-3-pyridin-4-yl-1H-1,2,4-triazol-1-yl}ethyl)-N-cyclopentyl-N′-(phenylmethyl)urea] |
| ≥ 10 | COc1ccc(-c2nc(-c3ccncc3)nn2CCN(C(=O)Nc2cc(C(F)(F)F)cc(C(F)(F)F)c2)C2CCCC2)cc1Cl [Entry 93, N′-[3,5-bis(trifluoromethyl)phenyl]-N-(2-{5-[3-chloro-4-(methyloxy)phenyl]-3-pyridin-4-yl-1H-1,2,4-triazol-1-yl}ethyl)-N-cyclopentylurea] |
| ≥ 10 | COc1ccc(-c2nc(-c3ccncc3)nn2CCN(C(=O)Nc2cc(OC)c(OC)c(OC)c2)C2CCCC2)cc1Cl [Entry 94, N-(2-{5-[3-chloro-4-(methyloxy)phenyl]-3-pyridin-4-yl-1H-1,2,4-triazol-1-yl}ethyl)-N-cyclopentyl-N′-[3,4,5-tris(methyloxy)phenyl]urea] |
| ≥ 10 | COc1ccc(-c2nc(-c3ccncc3)nn2CCN(C(=O)Nc2cccc(C(C)=O)c2)C2CCCC2)cc1Cl [Entry 95, N′-(3-acetylphenyl)-N-(2-{5-[3-chloro-4-(methyloxy)phenyl]-3-pyridin-4-yl-1H-1,2,4-triazol-1-yl}ethyl)-N-cyclopentylurea] |
| ≥ 10 | COc1ccc(-c2nc(-c3ccncc3)nn2CCN(C(=O)Nc2ccc(C)c(C)c2)C2CCCC2)cc1Cl [Entry 96, N-(2-{5-[3-chloro-4-(methyloxy)phenyl]-3-pyridin-4-yl-1H-1,2,4-triazol-1-yl}ethyl)-N-cyclopentyl-N′-(3,4-dimethylphenyl)urea] |
| 1 to 10 | COc1ccc(-c2nc(-c3ccncc3)nn2CCN(C(=O)Nc2ccc(Cl)cc2C(F)(F)F)C2CCCC2)cc1Cl [Entry 97, N-(2-{5-[3-chloro-4-(methyloxy)phenyl]-3-pyridin-4-yl-1H-1,2,4-triazol-1-yl}ethyl)-N′-[4-chloro-2-(trifluoromethyl)phenyl]-N-cyclopentylurea] |
| ≥ 10 | COc1ccc(-c2nc(-c3ccncc3)nn2CCN(C(=O)Nc2ccc(SC)cc2)C2CCCC2)cc1Cl [Entry 98, N-(2-{5-[3-chloro-4-(methyloxy)phenyl]-3-pyridin-4-yl-1H-1,2,4-triazol-1-yl}ethyl)-N-cyclopentyl-N′-[4-(methylthio)phenyl]urea] |
| ≥ 10 | COc1ccc(-c2nc(-c3ccncc3)nn2CCN(C(=O)Nc2ccc(C(C)=O)cc2)C2CCCC2)cc1Cl [Entry 99, N′-(4-acetylphenyl)-N-(2-{5-[3-chloro-4-(methyloxy)phenyl]-3-pyridin-4-yl-1H-1,2,4-triazol-1-yl}ethyl)-N-cyclopentylurea] |
| ≥ 10 | COc1ccc(-c2nc(-c3ccncc3)nn2CCN(C(=O)Nc2ccc(C(C)C)cc2)C2CCCC2)cc1Cl [Entry 100, N-(2-{5-[3-chloro-4-(methyloxy)phenyl]-3-pyridin-4-yl-1H-1,2,4-triazol-1-yl}ethyl)-N-cyclopentyl-N′-[4-(1-methylethyl)phenyl]urea] |
| ≥ 10 | COc1ccc(-c2nc(-c3ccncc3)nn2CCN(C(=O)Nc2ccc(C#N)cc2)C2CCCC2)cc1Cl [Entry 101, N-(2-{5-[3-chloro-4-(methyloxy)phenyl]-3-pyridin-4-yl-1H-1,2,4-triazol-1-yl}ethyl)-N′-(4-cyanophenyl)-N-cyclopentylurea] |
| ≥ 10 | COc1ccc(-c2nc(-c3ccncc3)nn2CCN(C(=O)Nc2ccccc2-c2ccccc2)C2CCCC2)cc1Cl [Entry 102, N′-biphenyl-2-yl-N-(2-{5-[3-chloro-4-(methyloxy)phenyl]-3-pyridin-4-yl-1H-1,2,4-triazol-1-yl}ethyl)-N-cyclopentylurea] |
| ≥ 10 | CCCCCNC(=O)N(CCn1nc(-c2ccncc2)nc1-c1ccc(OC)c(Cl)c1)C1CCCC1 [Entry 103, N-(2-{5-[3-chloro-4-(methyloxy)phenyl]-3-pyridin-4-yl-1H-1,2,4-triazol-1-yl}ethyl)-N-cyclopentyl-N′-pentylurea] |
